Patent publication US12077483B2, “Modified amine lipids” (Intellia Therapeutics, Inc., priority 2018, dated 2024)
Blank lines part the entries; values can stand above or below the compound they belong to.

Legend:
[1] = pKa of amine lipid by TNS fluorescence; type: physicochemical; details: probe TNS (6-(p-toluidino)-2-naphthalenesulfonic acid sodium salt), unformulated amine lipid in ethanol, sodium phosphate buffers -9.0
Outline: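 Unformulated amine lipid, about 100 μM final, in 0.1 M sodium phosphate buffers spanning pH 4.5–9.0 with TNS. Fluorescence read at ex 321/em 448 nm; normalized data fitted sigmoidally to give pKa.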

[2] = LNP average particle size and polydispersity by dynamic light scattering; type: physicochemical; details: LNP with the compound as amine lipid
Outline: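 LNPs were diluted in PBS to a count rate of about 200-400 kcps and measured by DLS on a Zetasizer. Size is the intensity-weighted Z-average diameter, reported with number-average diameter, and the polydispersity index describes the spread of sizes around the mean.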

[3] = RNA encapsulation efficiency of LNP (Ribogreen fluorescence assay); type: physicochemical; details: LNP with the compound as amine lipid
Outline: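 LNP samples diluted in 1× TE with or without 0.2% Triton-X 100 for total or free RNA, stained ~10 min at room temperature in the dark with RiboGreen; fluorescence ex 488/em 525 nm against RNA standard curves. Encapsulation efficiency = (Total RNA−Free RNA)/Total RNA.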

[4] = tested on: mouse TTR; experiment: Serum TTR ELISA in mice after LNP delivery; type: in vivo; details: mouse serum, relative to TSS control of same experiment
Outline: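 Female CD-1 mice received LNP at 0.1 mpk unless noted; serum was collected 6 or 7 days later. Total serum TTR was measured by mouse prealbumin ELISA at 10,000- and/or 2,500-fold dilution and is expressed as a percentage of vehicle control.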

[5] = Expt. 2, composition ratio (mol %) 50/9/39.5/3 for Cmpnd 49, 50/9/39.5/1.5 for the others
[6] = Expt. 8, composition ratio (mol %) 50/9/38/3 for Cmpnd 49, 50/10/38.5/1.5 for the others
[7] = Expt. 9, composition ratio (mol %) 50/9/38/3 for Cmpnd 49, 50/10/38.5/1.5 for the others
[8] = Expt. 1, composition ratio (mol %) 50/9/38/3 for Cmpnd 49, 50/10/38.5/1.5 for the others
[9] = Expt. 7, composition ratio (mol %) 50/9/38/3 for Cmpnd 49, 50/10/38.5/1.5 for the others
[10] = Expt. 4, composition ratio (mol %) 50/9/38/3 for Cmpnd 49, 50/10/38.5/1.5 for the others
[11] = Expt. 10, composition ratio (mol %) 50/9/38/3 for Cmpnd 49, 50/10/38.5/1.5 for the others
[12] = Expt. 6, composition ratio (mol %) 50/9/38/3 for Cmpnd 49, 50/10/38.5/1.5 for the others

pKa [1]: 6.45 | Num Ave Size (nm) [2, 5]: 78.34 nm | PDI [2, 5]: 0.034 | Z-Ave Size (nm) [2, 5]: 97.65 nm | Num Ave Size (nm) [2, 6]: 85.76 nm | PDI [2, 6]: 0.034 | Z-Ave Size (nm) [2, 6]: 104.3 nm | Encapsulation (%) [3, 5]: 99% | Encapsulation (%) [3, 6]: 99%
Compound: CCCCC/C=C\C/C=C\CCCCCCCC(=O)OCC(COC(=O)CCCCCCC/C=C\C/C=C\CCCCC)OC(=O)CCC(CCCCCC)OC(=O)NCC1CCCN1C (centres unmarked) [Compound 44, 2-((4-((((1-methylpyrrolidin-2-yl)methyl)carbamoyl)oxy)decanoyl)oxy)propane-1,3-diyl (9Z,9′Z,12Z,12′Z)-bis(octadeca-9,12-dienoate)]
Serum TTR % TSS ([4]; dose 0.03 mpk): 119.97 % TSS | Serum TTR % TSS ([4]; dose 0.1 mpk): 78.79 % TSS

pKa [1]: 6.35 | Num Ave Size (nm) [2, 7]: 72 nm | PDI [2, 7]: 0.03 | Z-Ave Size (nm) [2, 7]: 89 nm | Encapsulation (%) [3, 7]: 98%
Compound: CCCCC/C=C\C/C=C\CCCCCCCC(=O)OCC(COC(=O)CCCCCCC/C=C\C/C=C\CCCCC)OC(=O)CCC(CC/C=C\CCCCC)OC(=O)NCCN(C)CC (centres unmarked) [Compound 107, 2-(((Z)-4-(((2-(ethyl(methyl)amino)ethyl)carbamoyl)oxy)tridec-7-enoyl)oxy)propane-1,3-diyl (9Z,9′Z,12Z,12′Z)-bis(octadeca-9,12-dienoate)]
Serum TTR % TSS ([4]; dose 0.03 mpk): 58.53 % TSS

pKa [1]: 6.3 | Num Ave Size (nm) [2, 8]: 86.19 nm | PDI [2, 8]: 0.02 | Z-Ave Size (nm) [2, 8]: 106.40 nm | Encapsulation (%) [3, 8]: 97%
Compound: CCCCC/C=C\C/C=C\CCCCCCCC(=O)OCC(COC(=O)CCCCCCCC(=O)OCCCCCCCCCCC)OC(=O)CCCC(CCCCCCCC)OC(=O)NCCN(C)CC (centres unmarked) [Compound 64, 1-(3-methyl-15-((((9Z,12Z)-octadeca-9,12-dienoyl)oxy)methyl)-9-octyl-7,13-dioxo-8,14-dioxa-3,6-diazahexadecan-16-yl) 9-undecyl nonanedioate]
Serum TTR % TSS ([4]; dose 0.1 mpk): 85.39 % TSS

pKa [1]: 6.28 | Num Ave Size (nm) [2, 9]: 86.63 nm | PDI [2, 9]: 0.035 | Z-Ave Size (nm) [2, 9]: 104.5 nm | Encapsulation (%) [3, 9]: 97%
Compound: CCCCC/C=C\C/C=C\CCCCCCCC(=O)OCC(COC(=O)CCCCCCC/C=C\C/C=C\CCCCC)OC(=O)CCC(CCCCC)OC(=O)OCCCN1CCCC1 (centres unmarked) [Compound 71, 2-((4-(((3-(pyrrolidin-1-yl)propoxy)carbonyl)oxy)nonanoyl)oxy)propane-1,3-diyl (9Z,9′Z,12Z,12′Z)-bis(octadeca-9,12-dienoate)]
Serum TTR % TSS ([4]; dose 0.03 mpk): 47.425 % TSS | Serum TTR % TSS ([4]; dose 0.1 mpk): 15.055 % TSS

pKa [1]: 6.76 | Num Ave Size (nm) [2, 7]: 73 nm | PDI [2, 7]: 0.01 | Z-Ave Size (nm) [2, 7]: 88 nm | Encapsulation (%) [3, 7]: 98%
Compound: CCCCC/C=C\C/C=C\CCCCCCCC(=O)OCC(COC(=O)CCCCCCC/C=C\C/C=C\CCCCC)OC(=O)CC[C@H](CCCCCC)OC(=O)NCCN1CCCC1 [Compound 89, 2-(((S)-4-(((2-(pyrrolidin-1-yl)ethyl)carbamoyl)oxy)decanoyl)oxy)propane-1,3-diyl (9Z,9′Z,12Z,12′Z)-bis(octadeca-9,12-dienoate)]
Serum TTR % TSS ([4]; dose 0.03 mpk): 48.65 % TSS

pKa [1]: 6.41 | Num Ave Size (nm) [2, 10]: 76.59 nm | PDI [2, 10]: 0.029 | Z-Ave Size (nm) [2, 10]: 95.81 nm | Encapsulation (%) [3, 10]: 97%
Compound: CCCCC/C=C\C/C=C\CCCCCCCC(=O)OCC(COC(=O)CCCCCCC/C=C\C/C=C\CCCCC)OC(=O)CCC(CCCCCCC)OC(=O)NCCN(C)CC (centres unmarked) [Compound 73, 2-((4-(((2-(ethyl(methyl)amino)ethyl)carbamoyl)oxy)undecanoyl)oxy)propane-1,3-diyl (9Z,9′Z,12Z,12′Z)-bis(octadeca-9,12-dienoate)]
Serum TTR % TSS ([4]; dose 0.03 mpk): 25% TSS | Serum TTR % TSS ([4]; dose 0.1 mpk): 4% TSS

pKa [1]: 5.96 | Num Ave Size (nm) [2, 11]: 51 nm | PDI [2, 11]: 0.06 | Z-Ave Size (nm) [2, 11]: 67 nm | Encapsulation (%) [3, 11]: 98%
Compound: CCCCC/C=C\C/C=C\CCCCCCCC(=O)OCC(COC(=O)CCCCCCC/C=C\C/C=C\CCCCC)OC(=O)CCC(CCCCCCCC)OC(=O)OC1CCN(C)CC1 (centres unmarked) [Compound 92, 2-((4-((((1-methylpiperidin-4-yl)oxy)carbonyl)oxy)dodecanoyl)oxy)propane-1,3-diyl (9Z,9′Z,12Z,12′Z)-bis(octadeca-9,12-dienoate)]
Serum TTR % TSS ([4]; dose 0.03 mpk): 120% TSS

pKa [1]: 6.6 | Num Ave Size (nm) [2, 7]: 83 nm | PDI [2, 7]: 0.05 | Z-Ave Size (nm) [2, 7]: 102 nm | Encapsulation (%) [3, 7]: 99%
Compound: CCCCC/C=C\C/C=C\CCCCCCCC(=O)OCC(COC(=O)CCCCCCC/C=C\C/C=C\CCCCC)COC(=O)C(C)(C)C(CCCCCC)OC(=O)NCCN1CCCC1 (centres unmarked) [Compound 100, 2-(((2,2-dimethyl-3-(((2-(pyrrolidin-1-yl)ethyl)carbamoyl)oxy)nonanoyl)oxy)methyl)propane-1,3-diyl (9Z,9′Z,12Z,12′Z)-bis(octadeca-9,12-dienoate)]
Serum TTR % TSS ([4]; dose 0.03 mpk): 46.68 % TSS

pKa [1]: 6.43 | Num Ave Size (nm) [2, 8]: 99.29 nm | PDI [2, 8]: 0.02 | Z-Ave Size (nm) [2, 8]: 117.30 nm | Encapsulation (%) [3, 8]: 97%
Compound: CCCCC/C=C\C/C=C\CCCCCCCC(=O)OCC(COC(=O)CCCCCCC/C=C\C/C=C\CCCCC)COC(=O)CCCC(CCCCCCCC)OC(=O)NCCN(C)CC (centres unmarked) [Compound 55, 2-(13-methyl-7-octyl-3,9-dioxo-2,8-dioxa-10,13-diazapentadecyl)propane-1,3-diyl (9Z,9′Z,12Z,12′Z)-bis(octadeca-9,12-dienoate)]
Serum TTR % TSS ([4]; dose 0.1 mpk): 72.79 % TSS

pKa [1]: 6.09 | Num Ave Size (nm) [2, 12]: 82 nm | PDI [2, 12]: 0.01 | Z-Ave Size (nm) [2, 12]: 102.00 nm | Encapsulation (%) [3, 12]: 91%
Compound: CCCCC/C=C\C/C=C\CCCCCCCC(=O)OCC(COC(=O)CCCCCCC/C=C\C/C=C\CCCCC)OC(=O)CCC(CC(CC)CC)OC(=O)NCCN(C)CC (centres unmarked) [Compound 103, 2-((6-ethyl-4-(((2-(ethyl(methyl)amino)ethyl)carbamoyl)oxy)octanoyl)oxy)propane-1,3-diyl (9Z,9′Z,12Z,12′Z)-bis(octadeca-9,12-dienoate)]
Serum TTR % TSS ([4]; dose 0.03 mpk): 72.23 % TSS | Serum TTR % TSS ([4]; dose 0.1 mpk): 29.05 % TSS

pKa [1]: 6.96 | Num Ave Size (nm) [2, 11]: 86 nm | PDI [2, 11]: 0.01 | Z-Ave Size (nm) [2, 11]: 103 nm | Encapsulation (%) [3, 11]: 98%
Compound: CCCCC/C=C\C/C=C\CCCCCCCC(=O)OCC(COC(=O)CCCCCCC/C=C\C/C=C\CCCCC)OC(=O)CCC(CCCCCCCC)OC(=O)NCCN1CCC1 (centres unmarked) [Compound 93, 2-((4-(((2-(azetidin-1-yl)ethyl)carbamoyl)oxy)dodecanoyl)oxy)propane-1,3-diyl (9Z,9′Z,12Z,12′Z)-bis(octadeca-9,12-dienoate)]
Serum TTR % TSS ([4]; dose 0.03 mpk): 100% TSS

pKa [1]: 6.8 | Num Ave Size (nm) [2, 7]: 81 nm | PDI [2, 7]: 0.02 | Z-Ave Size (nm) [2, 7]: 99 nm | Encapsulation (%) [3, 7]: 98%
Compound: CCCCC/C=C\C/C=C\CCCCCCCC(=O)OCC(COC(=O)CCCCCCC/C=C\C/C=C\CCCCC)OC(=O)CC[C@@H](CCCCCC)OC(=O)NCCN1CCCC1 [Compound 90, 2-(((R)-4-(((2-(pyrrolidin-1-yl)ethyl)carbamoyl)oxy)decanoyl)oxy)propane-1,3-diyl (9Z,9′Z,12Z,12′Z)-bis(octadeca-9,12-dienoate)]
Serum TTR % TSS ([4]; dose 0.03 mpk): 59.95 % TSS

pKa [1]: 6.38 | Num Ave Size (nm) [2, 11]: 75 nm | PDI [2, 11]: 0.03 | Z-Ave Size (nm) [2, 11]: 92 nm | Encapsulation (%) [3, 11]: 98%
Compound: CCCCC/C=C\C/C=C\CCCCCCCC(=O)OCC(COC(=O)CCCCCCC/C=C\C/C=C\CCCCC)OC(=O)CCCC(CCCCCCCC)OC(=O)NCCN(C)CC (centres unmarked) [Compound 97, 2-((5-(((2-(ethyl(methyl)amino)ethyl)carbamoyl)oxy)tridecanoyl)oxy)propane-1,3-diyl (9Z,9′Z,12Z,12′Z)-bis(octadeca-9,12-dienoate)]
Serum TTR % TSS ([4]; dose 0.03 mpk): 79% TSS

pKa [1]: 6.34 | Num Ave Size (nm) [2, 8]: 88.36 nm | PDI [2, 8]: 0.03 | Z-Ave Size (nm) [2, 8]: 109.90 nm | Encapsulation (%) [3, 8]: 97%
Compound: CCCCCCCCCCCOC(=O)CCCCCCCC(=O)OCC(COC(=O)CCCCCCCC(=O)OCCCCCCCCCCC)OC(=O)CC(CCCCCCCC)OC(=O)NCCN(C)CC (centres unmarked) [Compound 59, O′1,O1-(2-((3-(((2-(ethyl(methyl)amino)ethyl)carbamoyl)oxy)undecanoyl)oxy)propane-1,3-diyl) 9,9′-diundecyl di(nonanedioate)]
Serum TTR % TSS ([4]; dose 0.1 mpk): 80.70 % TSS
